Measurements reported in patent EP1242382B1, “TRICYCLIC PROTEIN KINASE INHIBITORS” (Wyeth, priority 1999, dated 2001).
Values after ≈ are worked out from the molar mass of the structure shown.

Key:
A431 = test: Inhibition of cancer cell growth as measured by cell number (Sulforhodamine B); format: cell-based; settings: Homo sapiens, A-431; 48 hours exposure
Method: (§1) Human tumor cell lines are plated in 96-well plates (250 µl/well, 1-6 x 10^4 cells/ml) in RPMI 1640 medium, containing 5% FBS (Fetal Bovine Serum). Twenty four hours after plating, test compounds are added at various concentrations. After 48 hours exposure to test compounds, cells are fixed with trichloroacetic acid, and stained with Sulforhodamine B. After washing with trichloroacetic acid, bound dye is solubilized in 10 mM Tris base and optical density is determined using plate reader. Under conditions of the assay the optical density is proportional to the number of cells in the well. […] The test procedure is described in detail by Philip Skehan et. al, J. Natl. Canc. Inst., 82, 1107-1112 (1990). […] Information about some of the cell lines used in these test procedures is available from the American Type Tissue Collection: Cell Lines and Hybridomas, 1994 Reference Guide, 8th Edition.

SW620 = test: as above; format: cell-based; settings: Homo sapiens, SW-620; 48 hours exposure
Method: as §1

SK-BR3 = test: as above; format: cell-based; settings: Homo sapiens, SK-BR-3; 48 hours exposure
Method: as §1

MDA-MB-435 = test: as above; format: cell-based; settings: Homo sapiens, 48 hours exposure
Method: as §1

[1] = molecular target: T1, EGF-R Kinase (recombinant enzyme) (Homo sapiens, UniProt P00533); test: Inhibition of Epidermal Growth Factor Receptor Kinase (EGF-R) using recombinant enzyme; format: biochemical; settings: RR-SRC peptide substrate, (a) = average of two tests
T1 construct: EGFR cDNA encoding amino acids 645 - 1186 preceded by Met-Ala-(His)6; made in house; host or cells: Sf9 insect cells, recombinant baculovirus vHcEGFR52
Method: Representative test compounds are evaluated in a standard pharmacological test procedure to measure their ability to inhibit the phosphorylation of the tyrosine residue of a peptide substrate catalyzed by the enzyme epidermal growth factor receptor kinase. […] The enzyme used in this assay is the His-tagged cytoplasmic domain of EGFR. […] Sf9 cells in 100 mm plates are infected at a multiplicity of infection of 10 pfu/cell and cells are harvested 48 h post infection. A cytoplasmic extract is prepared using 1% Triton X-100 and applied to Ni-NTA column. After washing the column with 20 mM imidazole, HcEGFR is eluted with 250 mM imidazole (in 50 mM Na2HPO4, pH 8.0, 300 mM NaCl). Fractions collected are dialyzed against 10 mM HEPES, pH 7.0, 50 mM NaCl, 10% glycerol, 1ug/mL antipain and leupeptin and 0.1 mM Pefabloc SC. The protein is frozen in dry ice/methanol and stored -70°C.
Test compounds are made into 10 mg/mL stock solutions in 100% dimethylsulfoxide (DMSO). Prior to experiment, stock solutions are diluted to 500 uM with 100% DMSO and then serially diluted to the desired concentration with HEPES buffer (30 mM HEPES pH 7.4).
For the enzyme reaction, 10 uL of each inhibitor (at various concentrations) are added to each well of a 96-well plate. To this is added 3 uL of enzyme (1:10 dilution in 10mM HEPES, pH 7.4 for final conc. of 1:120). This is allowed to sit for 10 min on ice and is followed by the addition of 5 ul peptide (80 uM final conc.), 10ul of 4X Buffer containing 50 mM HEPES (pH 7.4), 200 mM Na3VO4, 40mM MnCl2, 80 uM ATP, 0.25 uL ^33P-ATP (>2500 Ci/mmol; Amersham) and 12 uL H2O. The reaction is allowed to run for 90 min at room temperature and is followed by spotting the entire volume onto precut P81 filter papers. The filter discs are washed 2X with 0.5% phosphoric acid and radioactivity is measured using a liquid scintillation counter.
The % inhibition of the test compound is determined for at least three different concentrations and the IC50 value is evaluated from the dose response curve. […] CPM(control) is in units of counts per minute and is a number expressing the amount of radiolabled ATP (γ-^33P) incorporated into the RR-SRC peptide substrate by the enzyme after 90 minutes at room temperature in the absence of test compound as measured by liquid scintillation counting. The CPM values are corrected for the background counts produced by ATP in the absence of the enzymatic reaction.

p60^c-src (Src) = molecular target: T2, p60^c-src (Src) (Homo sapiens, UniProt P12931); test: Src kinase test procedure (Elisa format); format: biochemical
T2 construct: purchased Upstate Biotechnologies
Method: Inhibitors of p60^c-src (partially purified preparation purchased from Upstate Biotechnologies) tyrosine kinase activity are analyzed in an Elisa format. […] HRP-conjugated anti-phosphotyrosine is used to detect phosphorylated peptide via a color reaction. Conditions recommended by the manufacturer are employed.
Reaction conditions: Five microliter aliquots of each compound prepared fresh at the time of the assay are added as a solution in 10mM HEPES pH 7.5, 10% DMSO to the reaction well. Thirty-five microliters of reaction mix containing Src, buffer and peptide/bovine serum albumin mix are added to the compound wells and incubated at 30°C for 10 minutes (reaction buffer: 50mM TrisHCl pH 7.5, 10mM MgCl2, 0.1mM EGTA, 0.5mM Na3VO4). The reaction is started by addition of 10 microliters of ATP, incubated at 30°C for 1 hour, and stopped by addition of 20 microliters of 0.5M EDTA. The reaction mixture with the phosphorylated peptide is then transferred to a streptavidin-coated microtiter plate (provided in the kit) and allowed to bind for 20 minutes. Unbound peptide and reaction mixture is decanted and the plate is washed with PBS six times. Horseradish peroxidase-conjugated phosphotyrosine antibody supplied in the kit is incubated with the plate for one hour, then decanted. The plate is again washed with PBS six times.

[2] = test system: Rat2 fibroblasts stably transformed with v-Src/Hu c-Src fusion gene; test: Anchorage independent Src-transformed fibroblast proliferation test procedure; format: cell-based; settings: Rattus norvegicus, the 3rd table c6, (a)-(d) = average of two to five runs, read-out: Src TF prolif IC50
Excerpt: Anchorage Independent Src-transformed Fibroblast Proliferation Test Procedure: Rat2 fibroblasts stably transformed with a plasmid containing a CMV promotor controlled v-Src/Hu c-Src fusion gene in which the catalytic domain of human c-Src is inserted in place of the v-Src catalytic domain in the v-Src gene are used for the measurement of src dependent suspension growth.

T1 sequence (P00533 669-1210): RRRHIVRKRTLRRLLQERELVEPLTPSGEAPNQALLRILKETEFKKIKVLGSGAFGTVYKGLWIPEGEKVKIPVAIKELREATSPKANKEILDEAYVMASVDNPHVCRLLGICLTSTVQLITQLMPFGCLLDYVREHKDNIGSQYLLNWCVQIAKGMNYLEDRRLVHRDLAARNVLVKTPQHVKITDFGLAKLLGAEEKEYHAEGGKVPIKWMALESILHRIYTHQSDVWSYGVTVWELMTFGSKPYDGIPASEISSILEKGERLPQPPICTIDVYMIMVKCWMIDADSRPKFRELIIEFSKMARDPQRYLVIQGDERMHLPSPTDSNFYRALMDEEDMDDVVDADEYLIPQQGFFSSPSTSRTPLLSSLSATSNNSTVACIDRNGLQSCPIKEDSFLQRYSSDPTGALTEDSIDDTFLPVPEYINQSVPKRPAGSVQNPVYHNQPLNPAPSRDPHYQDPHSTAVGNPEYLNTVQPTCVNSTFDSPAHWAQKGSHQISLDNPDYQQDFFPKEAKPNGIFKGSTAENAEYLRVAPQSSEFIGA
T2 sequence (P12931 whole entry): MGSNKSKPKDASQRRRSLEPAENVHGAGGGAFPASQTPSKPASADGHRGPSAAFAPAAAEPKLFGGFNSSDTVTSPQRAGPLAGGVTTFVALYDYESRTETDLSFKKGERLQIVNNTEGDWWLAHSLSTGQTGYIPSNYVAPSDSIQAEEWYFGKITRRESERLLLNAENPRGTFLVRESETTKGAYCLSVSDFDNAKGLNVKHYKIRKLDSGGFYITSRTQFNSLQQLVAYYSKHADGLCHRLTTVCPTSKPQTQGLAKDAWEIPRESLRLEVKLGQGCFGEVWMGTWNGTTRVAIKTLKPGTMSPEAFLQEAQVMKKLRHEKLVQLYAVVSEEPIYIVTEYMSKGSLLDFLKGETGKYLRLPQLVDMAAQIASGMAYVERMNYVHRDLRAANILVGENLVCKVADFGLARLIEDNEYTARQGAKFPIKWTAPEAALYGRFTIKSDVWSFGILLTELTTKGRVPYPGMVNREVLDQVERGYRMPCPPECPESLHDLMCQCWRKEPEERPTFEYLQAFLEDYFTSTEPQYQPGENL

`N#Cc1cnc2c(c1Nc1cccc(Br)c1)C=C1N=CN=C1C2` [Example 37, 8-(3-Bromo-phenylamino)imidazo[4,5-g]quinoline-7-carbonitrile] was tested, and the IC50 (A431) was 0.58 µg/mL (≈ 1.59 µM), the IC50 (SW620) was 3.72 µg/mL (≈ 10.2 µM) and the IC50 (SK-BR3) was 0.6 µg/mL (≈ 1.65 µM). It also gave an IC50 (MDA-MB-435) of 3.48 µg/mL (≈ 9.56 µM) and an IC50 [1] of 0.0015 µM.
`C=CC(=O)Nc1cccc2c1sc1c(Nc3cccc(Br)c3)c(C#N)cnc12` [Example 94, N-[4-(3-Bromoanilino)-3-cyano[1]benzothieno[3,2-b]pyridin-6-yl]acrylamide] was tested, and the IC50 (A431) was 1.11 µg/mL (≈ 2.47 µM), the IC50 (SW620) was > 5 µg/mL and the IC50 (SK-BR3) was 1.09 µg/mL (≈ 2.43 µM). It also gave an IC50 (MDA-MB-435) of 3.9 µg/mL (≈ 8.68 µM) and an IC50 [1] of 0.1 µM.
`N#Cc1cnc2cc3cc(O)c(O)cc3cc2c1Nc1ccc(Cl)cc1Cl` [Example 15, 4-(2,4-Dichloroanilino)-7,8-dihydroxybenzo[g]quinoline-3-carbonitrile] was tested, and the IC50 (A431) was 0.58 µg/mL (≈ 1.46 µM), the IC50 (SW620) was 0.38 µg/mL (≈ 0.959 µM) and the IC50 (SK-BR3) was > 5 µg/mL. It also gave an IC50 (MDA-MB-435) of 0.85 µg/mL (≈ 2.15 µM) and an inhibition at 0.01 µM (p60^c-src (Src); dose 0.01 µM, read-out: Src %Inh) of 10%.
Compound `N#Cc1cnc2c(sc3ccc([N+](=O)[O-])cc32)c1Nc1ccc(Cl)cc1Cl` [Example 90, 4-(2,4-Dichloroanilino)-8-nitro[1]benzothieno[3,2-b]pyridine-3-carbonitrile] has an IC50 (A431) of 0.41 µg/mL (≈ 0.987 µM), an IC50 (SW620) of 0.67 µg/mL (≈ 1.61 µM) and an IC50 (SK-BR3) of 0.59 µg/mL (≈ 1.42 µM). For the same compound, the IC50 (MDA-MB-435) was 0.46 µg/mL (≈ 1.11 µM) and the inhibition at 1 µM (p60^c-src (Src); dose 1 µM, read-out: Src %Inh) was 0%.
In the case of `COc1cc2cc3ncc(C#N)c(Nc4ccc(F)c(Cl)c4)c3cc2cc1OCCN1CCOCC1` [Example 212, 4-(3-Chloro-4-fluoroanilino)-8-methoxy-7-[2-(4-morpholinyl)ethoxy]benzo[g]quinoline-3-carbonitrile], the IC50 [2] is reported as > 10 µM, the IC50 (A431) is reported as 0.76 µg/mL (≈ 1.5 µM) and the IC50 (SW620) is reported as 0.36 µg/mL (≈ 0.71 µM). The IC50 (SK-BR3) was 0.04 µg/mL (≈ 0.0789 µM) and the IC50 [1] was 1.89 µM.
With `C=CC(=O)Nc1ccc2sc3c(Nc4cccc(Br)c4)c(C#N)cnc3c2c1` [Example 93, N-[4-(3-Bromoanilino)-3-cyano[1]benzothieno[3,2-b]pyridin-8-yl]acrylamide] the IC50 (A431) was 0.838 µg/mL (≈ 1.86 µM), the IC50 (SW620) was 1 µg/mL (≈ 2.23 µM) and the IC50 (SK-BR3) was 0.224 µg/mL (≈ 0.499 µM). It also gave an IC50 (MDA-MB-435) of 1.69 µg/mL (≈ 3.76 µM).
For `N#Cc1cnc2c(oc3ccccc32)c1Nc1cccc(Br)c1` [Example 85, 4-(3-Bromophenylamino)benzo[4,5]furo[3,2-b]pyridine-3-carbonitrile], the IC50 (A431) was > 5 µg/mL, the IC50 (SW620) was > 5 µg/mL and the IC50 (SK-BR3) was > 5 µg/mL. For the same compound, the IC50 (MDA-MB-435) was > 5 µg/mL, the “Src %Inh” value (p60^c-src (Src); dose 10 µM) was 44% and the inhibition at 10 µM (p60^c-src (Src); dose 10 µM, read-out: Src %Inh) was 53%. It also gave an IC50 [1] of 1 µM.
With `N#Cc1cnc2c(sc3ccccc32)c1Nc1cccc(Br)c1` [Example 65, 4-(3-Bromophenylamino)benzo[4,5]thieno[3,2-b]pyridine-3-carbonitrile] the IC50 (A431) was > 5 µg/mL, the IC50 (SW620) was > 5 µg/mL and the IC50 (SK-BR3) was > 5 µg/mL. For the same compound, the IC50 (MDA-MB-435) was > 5 µg/mL, the inhibition at 10 µM (p60^c-src (Src); dose 10 µM, read-out: Src %Inh) was 7% and the IC50 [1] was 1 µM.
With `N#Cc1cnc2cc3ccccc3cc2c1Nc1ccc(F)c(Cl)c1` [Example 4, 4-(3-Chloro-4-fluoroanilino)benzo[g]quinoline-3-carbonitrile] the IC50 (A431) was 0.332 µg/mL (≈ 0.955 µM), the IC50 (SW620) was 1.08 µg/mL (≈ 3.11 µM) and the IC50 (SK-BR3) was 1.01 µg/mL (≈ 2.9 µM). The IC50 (MDA-MB-435) was 1.65 µg/mL (≈ 4.74 µM) and the IC50 [1] was 0.005 µM.
With `N#Cc1cnc2c(sc3ccc(N)cc32)c1Nc1cccc(Br)c1` [Example 92, 8-Amino-4-(3-bromoanilino)-[1]benzothieno[3,2-b]pyridine-3-carbonitrile] the IC50 (A431) was > 5 µg/mL, the IC50 (SW620) was > 5 µg/mL and the IC50 (SK-BR3) was > 5 µg/mL. The IC50 (MDA-MB-435) was > 5 µg/mL.
